ChEMBL document CHEMBL3244335 (J Med Chem, 1977)

Columns and labels:
[1] = Octanol-water partition coefficient, log P of the compound at 37 degC; format: physicochemical
[2] = target: Histamine H2 receptor (Cavia porcellus) (UniProt P47747); experiment: Antagonist at histamine H2 receptor in guinea pig atrium assessed as inhibition of histamine-induced response; details: Cardiac atrium
[3] = target: Histamine H2 receptor (Rattus norvegicus) (UniProt P25102); experiment: Antagonist at histamine H2 receptor in rat uterus assessed as inhibition of histamine-induced response; format: tissue-based
[4] = Solubility of the compound in water at 37 degC; format: physicochemical; details: buffer
[5] = Octanol-water partition coefficient, log P of the compound at pH 9.2; format: physicochemical
[6] = Ionization constant, pKa of the compound; format: physicochemical
[7] = Ionization constant, pKa of the imidazole ring of the compound; format: physicochemical
[8] = Octanol-water partition coefficient, P of the compound at 37 degC

Chain of Histamine H2 receptor (Rattus norvegicus) (P25102 whole entry): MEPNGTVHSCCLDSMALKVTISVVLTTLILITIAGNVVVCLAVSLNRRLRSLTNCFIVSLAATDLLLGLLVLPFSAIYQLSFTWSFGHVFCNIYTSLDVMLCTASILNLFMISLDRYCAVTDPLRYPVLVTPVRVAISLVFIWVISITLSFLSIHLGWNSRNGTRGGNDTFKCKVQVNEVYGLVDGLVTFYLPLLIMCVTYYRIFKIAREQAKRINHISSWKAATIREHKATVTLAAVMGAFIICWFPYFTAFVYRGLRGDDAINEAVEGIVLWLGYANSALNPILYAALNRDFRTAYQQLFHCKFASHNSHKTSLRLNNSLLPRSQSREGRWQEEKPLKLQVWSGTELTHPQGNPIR
Chain of Histamine H2 receptor (Cavia porcellus) (P47747 whole entry): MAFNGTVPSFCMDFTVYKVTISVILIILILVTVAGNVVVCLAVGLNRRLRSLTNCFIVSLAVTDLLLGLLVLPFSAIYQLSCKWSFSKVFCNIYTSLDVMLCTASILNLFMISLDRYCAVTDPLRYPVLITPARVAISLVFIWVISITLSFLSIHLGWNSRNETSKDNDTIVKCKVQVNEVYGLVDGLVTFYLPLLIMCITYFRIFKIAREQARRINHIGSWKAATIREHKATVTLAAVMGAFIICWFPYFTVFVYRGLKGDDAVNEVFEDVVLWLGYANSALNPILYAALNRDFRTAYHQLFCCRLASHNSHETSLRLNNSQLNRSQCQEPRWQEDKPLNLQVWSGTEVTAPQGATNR

SMILES	Kb [2]	Kb [3]	further results
CNC(=S)NC	–	–	logP [1]: -0.237
CNC(=S)NCCSCc1c[nH]cn1	3.2 µM	3.2 µM	–
C/N=C(/NCCSCc1[nH]cnc1C)N[N+](=O)[O-]	1.4 µM	1.4 µM	–
CN/C(=N/C#N)NCCCCc1nc[nH]c1C	8.1 µM	4.9 µM	–
CN/C(=N/CCSCc1nc[nH]c1C)NC#N [CIMETIDINE]	–	–	solubility [4]: 1.14%; logP [5]: 2.5
CN/C(=N\C(N)=O)NCCSCc1nc[nH]c1C	7.1 µM	6.9 µM	–
CNC(=S)NCCCCc1nc[nH]c1C	8.9 µM	10.7 µM	–
CNC(=S)NCCSCc1[nH]cnc1C	0.92 µM	0.75 µM	–
CN/C(=N\C#N)NCCCCc1c[nH]cn1	8.3 µM	7.1 µM	–
CNC(=N)NCCSCc1nc[nH]c1C	16 µM	5.5 µM	–
N=C(N)N [GUANIDINE]	–	–	pKa [6]: 13.6
C/N=C(\S)NCCSCc1[nH]cnc1C [METIAMIDE]	–	–	pKa [7]: 6.8; solubility [4]: 0.32%; logP ([5]; read-out: logP (converted)): 0.505
CNC(=O)NCCSCc1[nH]cnc1C	22 µM	7.1 µM	–
CN/C(=N\C#N)NCCSCc1c[nH]cn1	1.4 µM	1.6 µM	–
N#CNC(=N)N	–	–	logP [1]: -1.16; pKa [6]: -0.4
NC(N)=S [THIOUREA]	–	–	P [8]: 0.09; pKa [6]: -1.2
CN/C(=N\CCSCc1nc[nH]c1C)NC#N	–	0.81 µM	–
CNC(=NC#N)NC	–	–	logP [1]: -0.398
C/N=C(\S)NCCCCc1c[nH]cn1	7.8 µM	6.6 µM	–
